Laboratory results as given in patent publication US20100121105A1, “Composition and Method of synthesizing a biomolecule and its therapeutics applications” (priority 2009, published 2010).
Where two headings read alike, the source gives them in different places.

How the values were obtained:
[1] = system: volunteers; test: Oral administration of ex-vivo synthesized J-Factor to 11 volunteers, physical changes observed; conditions: 0.5 mg per 10 days (=1.5 mg/month), observed in each volunteer
Protocol: (§1) In one of the embodiment of the present invention L-arginine was chemically converted into J-Factor ex-vivo. Thus converted/synthetic produced ex-vivo J-Factor was orally administrated to a small group of 11 volunteers. Each volunteers were given 0.5 mg per 10 days (=1.5 mg/month) and photographs were taken in each case at the beginning and end of the trial to record the changes in their faces and heads.
These changes indicate that ex-vivo synthesized J-Factor functioned like GH and autocrine-paracrine IGF-1 and also stimulated IGF-1 production.

[2] = system: volunteers; test: Comparison of synthetic J-Factor and biosynthetic GH: complications, diabetogenicity, antigenicity; assay type: in vivo
Protocol: as §1
In fact all of the above mentioned changes help in preventing or limiting the aging signs. The advantage of using ex-vivo synthesized J-Factor of the present invention when compared to biosynthetic GH is shown in the comparative table below: […]

[3] = system: volunteers; conditions: biosynthetic GH, intra muscular administration, 3 time a week; stated as common knowledge; cited from earlier work
[4] = comparative table, oral administration 3 times a month, no test described

NC(N)=NCCC[C@H](N)C(=O)O [J-Factor, L-2-amino-5-diaminomethyleneamino-pentanoic acid]
Eye's central vision [1]: Improvement in eye's central vision | Fatty tissue e.g. in abdomen [1]: A decrease in fatty tissue | Hair growth [1]: Hair growth | Muscular hypertrophy [1]: Muscular hypertrophy | Tone and color of facial skin [1]: Improved tone and color of facial skin | Complications (Joint swelling, Carpal tunnel syndrome, Joint pain) ([2]; 11 volunteers, oral administration, 3 times a month): showed no complications such as Joint | Antigenicity [2, 4]: Non-antigenic | Diabetogenicity [2, 4]: Non-diabetogenic

Biosynthetic GH: biosynthetic Growth Hormone, comparator in the table
Antigenicity [3]: Antigenic | Complications [3]: Joint swelling Carpal tunnel | Diabetogenicity [3]: Diabetogenic
